As usually defined, the IC50 is the midpoint of a concentration-inhibition curve. For orientation: Ki means the dissociation constant of the complex between target and ligand, obtained from inhibition or displacement.

Experimental findings from patent US9079866B2, “Flap modulators” (JANSSEN PHARMACEUTICA NV, priority 2013, dated 2015) are described below.

In assay [1] the test system is leukotriene pathway in human whole blood (LTB4 levels). Briefly: Human whole blood assay (A23187-stimulated LTB4). The assay is classed as cell-based. The settings on record: Homo sapiens, human whole blood diluted 1:1, A23187-stimulated; read-out: LTB4 IC50 1:1. In a few lines:
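Heparinised human whole blood diluted 1:1 in RPMI, pre-incubated 15 min at 37° Celsius with compound, then stimulated with A23187 (7 μg/mL) for 30 min at 37° Celsius. Plasma LTB4 measured by immunoassay kit; IC50 from 4-parameter fit; single replicate per plate, at least one healthy donor.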

Assay [2] has as its target human FLAP (Homo sapiens (Human), UniProt P20292). Briefly: FLAP binding assay (HTRF format). In a few lines:
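Reported data take the mean of two different plates carrying duplicate samples and use the HTRF ratio as the measured signal.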

[3] abbreviates: read-out: FLAP Binding wild type HTRF Ki.

Counter-ions that a name gives are not always drawn. Like-named read-outs stand apart in the source and are kept apart here.

Sequence of human FLAP (P20292 whole entry): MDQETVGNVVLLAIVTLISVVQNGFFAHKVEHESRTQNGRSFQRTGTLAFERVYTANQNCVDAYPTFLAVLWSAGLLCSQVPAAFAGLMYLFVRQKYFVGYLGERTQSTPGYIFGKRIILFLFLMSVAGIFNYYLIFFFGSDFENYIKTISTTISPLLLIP

In the case of `NC(=O)C1(S(=O)(=O)c2ccccc2-c2ccc(-c3cnc(N)cn3)c(F)c2)CCCC1` [Example 731, 1-{[4′-(5-Aminopyrazin-2-yl)-3′-fluorobiphenyl-2-yl]sulfonyl}cyclopentanecarboxamide], the IC50 in assay [1] stood at 0.0513 µM. This compound also showed a Ki in assay [2] (wild type FLAP, HTRF format) of 0.0147 µM.

In the case of `CC(C)(C#N)S(=O)(=O)c1ccccc1-c1ccc(-c2cnc(N)cn2)c(F)c1` [Example 735, 2-{[4′-(5-Aminopyrazin-2-yl)-3′-fluorobiphenyl-2-yl]sulfonyl}-2-methylpropanenitrile], in assay [1], the IC50 turned out to be 0.272 µM. The compound further gave a Ki in assay [2] (wild type FLAP, HTRF format) of 0.032 µM.

Take `N#CC1(S(=O)(=O)c2ccccc2-c2ccc(-c3cnc(N)nc3)c(F)c2)CCCC1` [Example 738, 1-{[4′-(2-Aminopyrimidin-5-yl)-3′-fluorobiphenyl-2-yl]sulfonyl}cyclopentanecarbonitrile]: in assay [1], the concentration for half-maximal inhibition (IC50) amounted to 2.95 µM. This compound also came in with a Ki in assay [2] (wild type FLAP, HTRF format) of 0.24 µM.

`NC(=O)C1(S(=O)(=O)c2ccccc2-c2ccc(-c3cnc(N)nc3)c(F)c2)CCCC1` [Example 739, 1-{[4′-(2-Aminopyrimidin-5-yl)-3′-fluorobiphenyl-2-yl]sulfonyl}cyclopentanecarboxamide]: in assay [1], the IC50 worked out at 1.11 µM. Besides, in assay [2] (wild type FLAP, HTRF format), the Ki amounted to 0.37 µM.

Consider `Nc1cnc(Sc2ccccc2-c2ccc(-c3cnc(N)cn3)c(F)c2)cn1` [Example 741, 5-{[4′-(5-Aminopyrazin-2-yl)-3′-fluorobiphenyl-2-yl]sulfanyl}pyrazin-2-amine], for which, in assay [1], the IC50 turned out to be 0.0263 µM. This compound also yielded a Ki in assay [2] (wild type FLAP, HTRF format) of 0.0046 µM.

Regarding `Nc1cnc(-c2ccc(-c3ccccc3Sc3cncc(N)n3)cc2F)cn1` [Example 742, 5-{2′-[(6-Aminopyrazin-2-yl)sulfanyl]-3-fluorobiphenyl-4-yl}pyrazin-2-amine], the IC50 in assay [1] worked out at 0.0257 µM. This compound yielded a Ki in assay [2] (wild type FLAP, HTRF format) of 0.0029 µM.

With `Nc1cnc(-c2ccc(-c3ccccc3Sc3ccncn3)cc2F)cn1` [Example 743, 5-(3-Fluoro-2′-(pyrimidin-4-ylthio)-[1,1′-biphenyl]-4-yl)pyrazin-2-amine], the IC50 in assay [1] is 0.0216 µM. Moreover, the affinity in assay [2] (wild type FLAP, HTRF format) corresponds to a Ki of 0.0016 µM.

Turning to `Nc1cnc(Sc2ccccc2-c2ccc(-c3cnc(N)nc3)c(F)c2)cn1` [Example 744, 5-{2′-[(5-Aminopyrazin-2-yl)sulfanyl]-3-fluorobiphenyl-4-yl}pyrimidin-2-amine], the IC50 in assay [1] amounted to 0.132 µM. In assay [2] (wild type FLAP, HTRF format), the inhibition constant Ki was determined as 0.0155 µM.

On to `N#Cc1nc(N)cnc1-c1ccc(-c2ccc(C(F)(F)F)cc2Oc2ncccn2)cc1F` [Example 746, 6-Amino-3-[3-fluoro-2′-(pyrimidin-2-yloxy)-4′-(trifluoromethyl)biphenyl-4-yl]pyrazine-2-carbonitrile], for which the IC50 in assay [1] was 0.137 µM. The compound also registered a Ki in assay [2] (wild type FLAP, HTRF format) of 0.002 µM.

Regarding `N#Cc1nc(N)cnc1-c1ccc(-c2ccccc2Oc2ncccn2)cc1F` [Example 747, 6-Amino-3-[3-fluoro-2′-(pyrimidin-2-yloxy)biphenyl-4-yl]pyrazine-2-carbonitrile], the IC50 in assay [1] came out at 0.262 µM. For the same compound, the Ki in assay [2] (wild type FLAP, HTRF format) was determined as 0.0271 µM.

Turning to `CCS(=O)(=O)Cc1ccccc1-c1ccc(-c2cnc(N)cn2)c(F)c1` [Example 749, 5-{2′-[(Ethylsulfonyl)methyl]-3-fluorobiphenyl-4-yl}pyrazin-2-amine hydrogen chloride salt], in assay [1], the IC50 is 0.468 µM. Also, the Ki in assay [2] (setting [3]) came to 0.245 µM.

On to `CC(C)S(=O)(=O)Cc1ccccc1-c1ccc(-c2cnc(N)cn2)c(F)c1` [Example 751, 5-(3-Fluoro-2′-{[(1-methylethyl)sulfonyl]methyl}biphenyl-4-yl)pyrazin-2-amine], for which the IC50 in assay [1] was 1.06 µM. The compound further returned a Ki in assay [2] (wild type FLAP, HTRF format) of 0.0809 µM.

On to `Nc1cnc(-c2ccc(-c3ccccc3CS(=O)(=O)c3ncccn3)cc2F)cn1` [Example 752, 5-{3-Fluoro-2′-[(pyrimidin-2-ylsulfonyl)methyl]biphenyl-4-yl}pyrazin-2-amine], for which the IC50 in assay [1] stood at 0.299 µM. In assay [2] (wild type FLAP, HTRF format), this compound yielded a Ki of 0.135 µM.

As to `Nc1cnc(-c2ccc(-c3ccccc3CSc3nccc(N)n3)cc2F)cn1` [Example 753, 2-({[4′-(5-Aminopyrazin-2-yl)-3′-fluorobiphenyl-2-yl]methyl}sulfanyl)pyrimidin-4-amine], the IC50 in assay [1] is 0.0213 µM. Moreover, the affinity in assay [2] (wild type FLAP, HTRF format), expressed as Ki, was 0.0044 µM.

Turning to `Nc1cnc(-c2ccc(-c3ccc(C(F)(F)F)cc3C(=O)N3CCS(=O)(=O)CC3)cc2F)cn1` [Example 757, 5-{2′-[(1,1-Dioxidothiomorpholin-4-yl)carbonyl]-3-fluoro-4′-(trifluoromethyl)biphenyl-4-yl}pyrazin-2-amine], the IC50 in assay [1] worked out at 0.0162 µM. The inhibitory constant (Ki) in assay [2] (wild type FLAP, HTRF format) came out at 0.0052 µM.

As to `Nc1cnc(-c2ccc(-c3ccccc3C(=O)N3CCC[C@@H](O)C3)cc2F)cn1` [Example 762, (3R)-1-{[4′-(5-Aminopyrazin-2-yl)-3′-fluorobiphenyl-2-yl]carbonyl}piperidin-3-ol], the IC50 in assay [1] stood at 0.442 µM. Besides, the affinity in assay [2] (wild type FLAP, HTRF format) corresponds to a Ki of 0.159 µM.

Turning to `CC(C)(C)NC(=O)c1cc(C(F)(F)F)ccc1-c1ccc(-c2cnc(N)cn2)c(F)c1` [Example 784, 2-[4-(5-Aminopyrazin-2-yl)-3-fluoro-phenyl]-N-tert-butyl-5-(trifluoromethyl)benzamide], the IC50 in assay [1] came to 0.111 µM. The Ki in assay [2] (wild type FLAP, HTRF format) amounted to 0.0079 µM.

With `C[C@H](CO)NC(=O)c1cc(C(F)(F)F)ccc1-c1ccc(-c2cnc(N)cn2)c(F)c1` [Example 785, 2-[4-(5-Aminopyrazin-2-yl)-3-fluoro-phenyl]-N-[(1R)-2-hydroxy-1-methyl-ethyl]-5-(trifluoromethyl)benzamide], the IC50 in assay [1] was 0.0575 µM. The affinity in assay [2] (wild type FLAP, HTRF format) corresponds to a Ki of 0.0085 µM.

On to `C[C@@H](CO)NC(=O)c1cc(C(F)(F)F)ccc1-c1ccc(-c2cnc(N)cn2)c(F)c1` [Example 786, 2-[4-(5-Aminopyrazin-2-yl)-3-fluoro-phenyl]-N-[(1S)-2-hydroxy-1-methyl-ethyl]-5-(trifluoromethyl)benzamide], for which the IC50 in assay [1] was determined as 0.105 µM. The compound also gave a Ki in assay [2] (wild type FLAP, HTRF format) of 0.0607 µM.

On to `C[C@@H](NC(=O)c1cc(C(F)(F)F)ccc1-c1ccc(-c2cnc(N)cn2)c(F)c1)C(F)(F)F` [Example 787, 2-[4-(5-Aminopyrazin-2-yl)-3-fluoro-phenyl]-5-(trifluoromethyl)-N-[(1R)-2,2,2-trifluoro-1-methyl-ethyl]benzamide], for which, in assay [1], the IC50 came out at 0.0979 µM. Moreover, the Ki in assay [2] (wild type FLAP, HTRF format) was 0.0091 µM.

With `C[C@H](NC(=O)c1cc(C(F)(F)F)ccc1-c1ccc(-c2cnc(N)nc2)c(F)c1)C(F)(F)F` [Example 788, 2-[4-(2-Aminopyrimidin-5-yl)-3-fluoro-phenyl]-5-(trifluoromethyl)-N-[(1S)-2,2,2-trifluoro-1-methyl-ethyl]benzamide], in assay [1], the IC50 was 0.272 µM. Besides, in assay [2] (wild type FLAP, HTRF format), affinity was put at a Ki of 0.0178 µM.

As for `C[C@@H](NC(=O)c1cc(C(F)(F)F)ccc1-c1ccc(-c2cnc(N)nc2)c(F)c1)C(F)(F)F` [Example 789, 2-[4-(2-Aminopyrimidin-5-yl)-3-fluoro-phenyl]-5-(trifluoromethyl)-N-[(1R)-2,2,2-trifluoro-1-methyl-ethyl]benzamide], the IC50 in assay [1] turned out to be 0.939 µM. Besides, the Ki in assay [2] (wild type FLAP, HTRF format) was 0.13 µM.

For `C[C@H](NC(=O)c1cc(C(F)(F)F)ccc1-c1ccc(-c2cnc(N)cn2)c(F)c1)C(F)(F)F` [Example 790, 2-[4-(5-Aminopyrazin-2-yl)-3-fluoro-phenyl]-5-(trifluoromethyl)-N-[(1S)-2,2,2-trifluoro-1-methyl-ethyl]benzamide], the IC50 in assay [1] turned out to be 0.0253 µM. This compound came in with a Ki in assay [2] (wild type FLAP, HTRF format) of 0.0015 µM.

As for `Nc1ncc(-c2ccc(-c3ccc(C(F)(F)F)cc3C(=O)N3CCS(=O)(=O)CC3)cc2F)cn1` [Example 793, [2-[4-(2-Aminopyrimidin-5-yl)-3-fluoro-phenyl]-5-(trifluoromethyl)phenyl]-(1,1-dioxo-1,4-thiazinan-4-yl)methanone], the half-maximal inhibitory concentration (IC50) in assay [1] stood at 0.642 µM. In assay [2] (wild type FLAP, HTRF format), this compound gave a Ki of 0.28 µM.

With `CC(C)(C)NC(=O)c1cc(C(F)(F)F)ccc1-c1ccc(-c2cnc(N)nc2)c(F)c1` [Example 794, 2-[4-(2-Aminopyrimidin-5-yl)-3-fluoro-phenyl]-N-tert-butyl-5-(trifluoromethyl)benzamide], the IC50 in assay [1] was found to be 3.94 µM. The compound further registered a Ki in assay [2] (wild type FLAP, HTRF format) of 0.0328 µM.

With `Nc1cnc(-c2ccc(-c3ccc(C(F)(F)F)cc3C(=O)N3CCC(O)CC3)cc2F)cn1` [Example 795, [2-[4-(5-Aminopyrazin-2-yl)-3-fluoro-phenyl]-5-(trifluoromethyl)phenyl]-(4-hydroxy-1-piperidyl)methanone], in assay [1], the IC50 was 0.0686 µM. This compound came in with a Ki in assay [2] (wild type FLAP, HTRF format) of 0.0085 µM.

For `CC(C)(C)C(=O)Nc1ncccc1-c1ccc(-c2cnc3[nH]ccc3c2)c(F)c1` [Example 802, N-{3-[3-Fluoro-4-(1H-pyrrolo[2,3-b]pyridin-5-yl)phenyl]pyridin-2-yl}-2,2-dimethylpropanamide], in assay [1], the half-inhibitory concentration (IC50) is 0.000994 µM. Besides, the Ki in assay [2] (wild type FLAP, HTRF format) was over 10 µM.

In the case of `Nc1ncc(-c2ccc(-c3cccnc3S(=O)(=O)C3CCC3)cc2F)cn1` [Example 805, 5-(4-(2-(Cyclobutylsulfonyl)pyridin-3-yl)-2-fluorophenyl)pyrimidin-2-amine hydrochloride], in assay [1], the IC50 came to 0.353 µM. The Ki in assay [2] (wild type FLAP, HTRF format) is 0.0297 µM.

Turning to `Nc1cnc(-c2ccc(-c3cccnc3S(=O)(=O)C3CCC3)cc2F)cn1` [Example 806, 5-(4-(2-(Cyclobutylsulfonyl)pyridin-3-yl)-2-fluorophenyl)pyrazin-2-amine hydrochloride], the IC50 in assay [1] is 0.0484 µM. The compound further showed a Ki in assay [2] (wild type FLAP, HTRF format) of 0.0018 µM.

Take `Nc1ncc(-c2ccc(-c3cccnc3S(=O)(=O)C3CCCCC3)cc2F)cn1` [Example 807, 5-(4-(2-(Cyclohexlsulfonyl)pyridin-3-yl)-2-fluorophenyl)pyrimidin-2-amine hydrochloride]: in assay [1], the IC50 stood at 0.0722 µM. For the same compound, the Ki in assay [2] (setting [3]) came out at 0.0058 µM.
